According to the supplement of paper PMC10307832:

Legend:
Assay in all cases: relative viability (nuclei count vs DMSO), 5 days (fraction); higher = more cells survive
[1] = tested on: NCI-H2170
In short: (§1)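 Medians of duplicate plates are given as relative viability. That measure is the nuclei count in treated wells divided by the count in vehicle wells. Counts were taken on 4× images of lung cancer cell lines in 1536-well plates, 5 days after pin-tool dosing the day after seeding with one drug alone or a fixed anchor-drug dose plus five library-drug doses (not always all listed) in √10 steps.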

[2] = tested on: NCI-H441
In short: as §1

[3] = tested on: NCI-H1666
In short: as §1

[4] = tested on: NCI-H727
In short: as §1

[5] = tested on: EPLC-272H
In short: as §1

[6] = tested on: NCI-H838
In short: as §1

[7] = tested on: LCLC-103H
In short: as §1

[8] = tested on: PC-3 [JPC-3]
In short: as §1

[9] = tested on: NCI-H1792
In short: as §1

[10] = tested on: NCI-H2342
In short: as §1

[11] = tested on: NCI-H2228
In short: as §1

[12] = tested on: NCI-H1755
In short: as §1

[13] = tested on: EMC-BAC-2
In short: as §1

[14] = tested on: HCC-78
In short: as §1

[15] = tested on: SK-MES-1
In short: as §1

[16] = tested on: NCI-H1793
In short: as §1

[17] = tested on: 201T
In short: as §1

[18] = tested on: NCI-H2126
In short: as §1

[19] = tested on: NCI-H1355
In short: as §1

[20] = tested on: SW 1573
In short: as §1

[21] = tested on: NCI-H520
In short: as §1

[22] = tested on: NCI-H1975
In short: as §1

Work on Nc1cccc2c1CN(C1CCC(=O)NC1=O)C2=O (stereo not drawn) [Lenalidomide] + N=C(N)NC(=N)NCCc1ccccc1 [Phenformin] (partner 250 µM) yielded a relative viability ([1]; first compound 0.253 µM) of 0.47, a relative viability ([1]; first compound 0.8 µM) of 0.425 and a relative viability ([1]; first compound 2.53 µM) of 0.414. For the same compound, the relative viability ([1]; first compound 8 µM) was 0.481, the relative viability ([2]; first compound 0.253 µM) was 0.827 and the relative viability ([2]; first compound 0.8 µM) was 0.958. It also gave a relative viability ([2]; first compound 2.53 µM) of 0.949, a relative viability ([2]; first compound 8 µM) of 0.613 and a relative viability ([3]; first compound 0.253 µM) of 0.331. The relative viability ([3]; first compound 2.53 µM) was 0.635, the relative viability ([3]; first compound 8 µM) was 0.527 and the relative viability ([4]; first compound 0.253 µM) was 0.613. For the same compound, the relative viability ([4]; first compound 0.8 µM) was 0.53, the relative viability ([4]; first compound 2.53 µM) was 0.505 and the relative viability ([4]; first compound 8 µM) was 0.423. It also gave a relative viability ([5]; first compound 0.253 µM) of 0.282, a relative viability ([5]; first compound 0.8 µM) of 0.341 and a relative viability ([5]; first compound 2.53 µM) of 0.318. The relative viability ([5]; first compound 8 µM) was 0.224, the relative viability ([6]; first compound 0.253 µM) was 0.545 and the relative viability ([6]; first compound 0.8 µM) was 0.541. It also gave a relative viability ([6]; first compound 2.53 µM) of 0.689, a relative viability ([6]; first compound 8 µM) of 0.468 and a relative viability ([7]; first compound 0.253 µM) of 0.364. It also gave a relative viability ([7]; first compound 0.8 µM) of 0.327, a relative viability ([7]; first compound 2.53 µM) of 0.352 and a relative viability ([7]; first compound 8 µM) of 0.257. For the same compound, the relative viability ([8]; first compound 0.253 µM) was 0.482, the relative viability ([8]; first compound 0.8 µM) was 0.432 and the relative viability ([8]; first compound 2.53 µM) was 0.502. The relative viability ([8]; first compound 8 µM) was 0.511, the relative viability ([9]; first compound 0.253 µM) was 0.369 and the relative viability ([9]; first compound 2.53 µM) was 0.574. For the same compound, the relative viability ([9]; first compound 8 µM) was 0.189, the relative viability ([10]; first compound 0.253 µM) was 0.637 and the relative viability ([10]; first compound 0.8 µM) was 0.551. For the same compound, the relative viability ([10]; first compound 2.53 µM) was 0.628, the relative viability ([10]; first compound 8 µM) was 0.505 and the relative viability ([11]; first compound 0.253 µM) was 0.273. The relative viability ([11]; first compound 0.8 µM) was 0.327, the relative viability ([11]; first compound 2.53 µM) was 0.27 and the relative viability ([11]; first compound 8 µM) was 0.264. It also gave a relative viability ([12]; first compound 0.253 µM) of 0.627, a relative viability ([12]; first compound 0.8 µM) of 0.615 and a relative viability ([12]; first compound 2.53 µM) of 0.682. The relative viability ([12]; first compound 8 µM) was 0.536, the relative viability ([13]; first compound 0.253 µM) was 0.527 and the relative viability ([13]; first compound 0.8 µM) was 0.525. It also gave a relative viability ([13]; first compound 2.53 µM) of 0.598, a relative viability ([13]; first compound 8 µM) of 0.459 and a relative viability ([14]; first compound 0.253 µM) of 0.825. It also gave a relative viability ([14]; first compound 0.8 µM) of 0.625, a relative viability ([14]; first compound 2.53 µM) of 0.909 and a relative viability ([14]; first compound 8 µM) of 0.448. For the same compound, the relative viability ([15]; first compound 0.253 µM) was 0.556, the relative viability ([15]; first compound 0.8 µM) was 0.678 and the relative viability ([15]; first compound 2.53 µM) was 0.678. For the same compound, the relative viability ([15]; first compound 8 µM) was 0.773, the relative viability ([16]; first compound 0.253 µM) was 0.384 and the relative viability ([16]; first compound 2.53 µM) was 0.515. It also gave a relative viability ([16]; first compound 8 µM) of 0.344, a relative viability ([17]; first compound 0.253 µM) of 0.448 and a relative viability ([17]; first compound 2.53 µM) of 0.444. It also gave a relative viability ([17]; first compound 8 µM) of 0.404, a relative viability ([18]; first compound 0.253 µM) of 0.552 and a relative viability ([18]; first compound 0.8 µM) of 0.517. It also gave a relative viability ([18]; first compound 2.53 µM) of 0.531, a relative viability ([18]; first compound 8 µM) of 0.458 and a relative viability ([19]; first compound 0.253 µM) of 0.485. The relative viability ([19]; first compound 2.53 µM) was 0.462, the relative viability ([19]; first compound 8 µM) was 0.399 and the relative viability ([20]; first compound 0.253 µM) was 0.432. It also gave a relative viability ([20]; first compound 0.8 µM) of 0.43, a relative viability ([20]; first compound 2.53 µM) of 0.347 and a relative viability ([20]; first compound 8 µM) of 0.345. For the same compound, the relative viability ([21]; first compound 0.253 µM) was 0.579, the relative viability ([21]; first compound 0.8 µM) was 0.481 and the relative viability ([21]; first compound 2.53 µM) was 0.658. It also gave a relative viability ([21]; first compound 8 µM) of 0.257, a relative viability ([22]; first compound 0.253 µM) of 0.402 and a relative viability ([22]; first compound 0.8 µM) of 0.35. The relative viability ([22]; first compound 2.53 µM) was 0.474 and the relative viability ([22]; first compound 8 µM) was 0.336.
